{"source": "ChEMBL document CHEMBL5465560", "about": "“Selectivity Literature for EUbOPEN Chemogenomic Library” (2024)", "key": {"[1]": {"target": "Insulin receptor-related protein (Homo sapiens) (UniProt P14616)", "sequence (P14616 27-742 limits assumed)": "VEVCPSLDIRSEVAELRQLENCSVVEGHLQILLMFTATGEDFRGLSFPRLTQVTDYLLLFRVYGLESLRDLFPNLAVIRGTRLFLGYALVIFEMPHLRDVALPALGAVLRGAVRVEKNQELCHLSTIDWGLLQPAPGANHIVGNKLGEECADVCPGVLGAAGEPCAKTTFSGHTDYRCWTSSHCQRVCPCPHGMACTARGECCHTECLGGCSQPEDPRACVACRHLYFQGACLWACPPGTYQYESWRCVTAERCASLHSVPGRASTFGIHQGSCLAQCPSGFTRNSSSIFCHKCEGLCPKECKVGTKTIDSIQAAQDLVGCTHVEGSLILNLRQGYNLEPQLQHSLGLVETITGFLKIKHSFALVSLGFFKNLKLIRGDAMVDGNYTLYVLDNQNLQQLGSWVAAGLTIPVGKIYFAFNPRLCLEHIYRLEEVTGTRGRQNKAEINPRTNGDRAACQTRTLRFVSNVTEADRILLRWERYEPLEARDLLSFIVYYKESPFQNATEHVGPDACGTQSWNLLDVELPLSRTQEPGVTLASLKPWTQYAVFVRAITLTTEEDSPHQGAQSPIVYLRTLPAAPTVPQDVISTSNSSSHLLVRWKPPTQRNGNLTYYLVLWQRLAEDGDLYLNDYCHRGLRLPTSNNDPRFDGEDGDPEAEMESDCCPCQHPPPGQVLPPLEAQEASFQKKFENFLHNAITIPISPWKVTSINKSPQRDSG", "sequence (P14616 747-1297 limits assumed)": "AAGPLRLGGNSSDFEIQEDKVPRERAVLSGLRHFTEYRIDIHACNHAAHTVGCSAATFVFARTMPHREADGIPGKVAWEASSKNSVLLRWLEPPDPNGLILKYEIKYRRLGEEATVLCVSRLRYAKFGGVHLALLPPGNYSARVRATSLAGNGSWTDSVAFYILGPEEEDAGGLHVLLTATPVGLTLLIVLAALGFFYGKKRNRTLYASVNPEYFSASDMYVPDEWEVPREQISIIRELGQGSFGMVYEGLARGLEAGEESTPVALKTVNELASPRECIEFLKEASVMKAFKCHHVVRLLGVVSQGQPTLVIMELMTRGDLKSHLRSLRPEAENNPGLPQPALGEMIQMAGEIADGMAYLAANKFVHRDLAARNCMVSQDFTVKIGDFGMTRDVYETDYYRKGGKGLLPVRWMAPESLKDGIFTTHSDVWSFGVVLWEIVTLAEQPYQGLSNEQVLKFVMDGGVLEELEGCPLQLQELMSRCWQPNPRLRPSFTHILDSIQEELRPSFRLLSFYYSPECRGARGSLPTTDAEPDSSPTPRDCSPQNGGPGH", "assay": "Selectivity interaction (KinomeScan (DiscoverX)) EUB0001049a INSRR", "settings": "at 1 µM"}, "[2]": {"target": "Dual specificity mitogen-activated protein kinase kinase 2 (Homo sapiens) (UniProt P36507)", "sequence (P36507 whole entry)": "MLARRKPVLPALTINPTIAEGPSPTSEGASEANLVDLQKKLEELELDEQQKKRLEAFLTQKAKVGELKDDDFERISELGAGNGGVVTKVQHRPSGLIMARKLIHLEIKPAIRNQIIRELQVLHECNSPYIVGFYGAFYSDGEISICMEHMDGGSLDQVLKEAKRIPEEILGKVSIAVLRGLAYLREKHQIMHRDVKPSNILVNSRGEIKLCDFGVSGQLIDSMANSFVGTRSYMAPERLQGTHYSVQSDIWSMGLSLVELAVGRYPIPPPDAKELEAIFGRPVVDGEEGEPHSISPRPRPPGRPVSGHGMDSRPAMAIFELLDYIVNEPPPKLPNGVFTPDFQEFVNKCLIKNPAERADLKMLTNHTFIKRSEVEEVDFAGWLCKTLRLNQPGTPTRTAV", "assay": "Selectivity interaction (Kinase panel (Invitrogen)) EUB0000639a MAP2K2", "settings": "at 200 nM"}, "[3]": {"target": "Phosphatidylinositol 4,5-bisphosphate 3-kinase catalytic subunit gamma isoform (Homo sapiens) (UniProt P48736)", "sequence (P48736 whole entry, looked up, canonical isoform)": "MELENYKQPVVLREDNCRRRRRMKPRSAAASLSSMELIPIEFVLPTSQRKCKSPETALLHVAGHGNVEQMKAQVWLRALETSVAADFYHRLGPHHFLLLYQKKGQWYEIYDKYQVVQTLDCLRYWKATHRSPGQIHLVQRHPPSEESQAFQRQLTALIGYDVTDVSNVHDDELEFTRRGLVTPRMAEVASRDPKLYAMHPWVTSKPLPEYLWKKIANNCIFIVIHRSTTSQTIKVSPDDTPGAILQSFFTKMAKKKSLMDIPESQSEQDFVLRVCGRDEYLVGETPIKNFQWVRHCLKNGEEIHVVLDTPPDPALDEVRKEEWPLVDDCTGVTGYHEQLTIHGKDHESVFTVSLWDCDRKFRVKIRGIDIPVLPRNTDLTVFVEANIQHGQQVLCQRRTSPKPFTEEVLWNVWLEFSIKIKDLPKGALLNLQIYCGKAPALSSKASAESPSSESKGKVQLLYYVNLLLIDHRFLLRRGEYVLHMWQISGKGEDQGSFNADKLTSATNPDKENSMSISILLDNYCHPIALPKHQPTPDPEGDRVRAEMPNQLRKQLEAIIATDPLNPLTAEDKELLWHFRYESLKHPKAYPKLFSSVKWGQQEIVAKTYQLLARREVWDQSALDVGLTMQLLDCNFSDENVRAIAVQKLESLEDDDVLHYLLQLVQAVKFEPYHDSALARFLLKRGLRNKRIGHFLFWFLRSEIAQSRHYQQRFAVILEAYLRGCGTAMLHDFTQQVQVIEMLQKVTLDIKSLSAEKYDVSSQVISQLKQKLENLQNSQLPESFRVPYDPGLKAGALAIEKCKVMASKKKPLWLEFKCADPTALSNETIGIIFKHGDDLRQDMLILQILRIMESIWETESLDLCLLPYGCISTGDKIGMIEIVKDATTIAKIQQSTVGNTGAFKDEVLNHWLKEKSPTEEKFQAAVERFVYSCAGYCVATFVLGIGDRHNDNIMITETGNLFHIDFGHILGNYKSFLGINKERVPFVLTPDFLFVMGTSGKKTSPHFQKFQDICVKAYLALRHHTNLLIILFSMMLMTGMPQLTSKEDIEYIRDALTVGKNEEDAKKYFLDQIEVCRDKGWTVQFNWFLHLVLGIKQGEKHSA", "assay": "Selectivity interaction (KinomeScan (DiscoverX)) EUB0000595a PIK3CG", "settings": "at 10 µM"}, "[4]": {"target": "T1, Serine/threonine-protein kinase D3 (Homo sapiens) (UniProt O94806)", "T1 sequence (whole entry)": "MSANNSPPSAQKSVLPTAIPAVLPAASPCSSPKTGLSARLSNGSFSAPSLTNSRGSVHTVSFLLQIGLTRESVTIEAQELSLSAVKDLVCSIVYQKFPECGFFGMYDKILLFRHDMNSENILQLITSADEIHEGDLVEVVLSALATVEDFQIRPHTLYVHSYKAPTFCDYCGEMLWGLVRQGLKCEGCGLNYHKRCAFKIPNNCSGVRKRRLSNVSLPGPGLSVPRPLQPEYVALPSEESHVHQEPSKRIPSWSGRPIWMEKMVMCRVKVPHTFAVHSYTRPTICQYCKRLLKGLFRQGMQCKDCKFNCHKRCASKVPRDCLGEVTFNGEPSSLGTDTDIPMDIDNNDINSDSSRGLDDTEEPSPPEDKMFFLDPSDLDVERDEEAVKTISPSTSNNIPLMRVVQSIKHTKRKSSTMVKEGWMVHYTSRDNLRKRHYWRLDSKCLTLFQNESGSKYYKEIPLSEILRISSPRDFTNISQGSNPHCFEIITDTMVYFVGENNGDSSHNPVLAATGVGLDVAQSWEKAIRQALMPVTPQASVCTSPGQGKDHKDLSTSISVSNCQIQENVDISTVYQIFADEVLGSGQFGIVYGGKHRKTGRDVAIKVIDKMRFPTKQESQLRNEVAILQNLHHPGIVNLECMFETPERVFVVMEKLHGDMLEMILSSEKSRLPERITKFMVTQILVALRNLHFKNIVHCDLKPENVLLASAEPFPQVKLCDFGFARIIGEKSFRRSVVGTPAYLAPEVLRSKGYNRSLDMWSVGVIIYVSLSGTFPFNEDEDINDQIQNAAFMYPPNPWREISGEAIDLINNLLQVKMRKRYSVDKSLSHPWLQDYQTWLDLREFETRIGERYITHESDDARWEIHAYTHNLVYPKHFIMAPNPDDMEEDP", "assay": "Selectivity interaction (KinomeScan (DiscoverX)) EUB0000595a PRKD3", "settings": "at 10 µM"}, "[5]": {"target": "T2, Phosphatidylinositol 4,5-bisphosphate 3-kinase catalytic subunit delta isoform (Homo sapiens) (UniProt O00329)", "T2 sequence (whole entry)": "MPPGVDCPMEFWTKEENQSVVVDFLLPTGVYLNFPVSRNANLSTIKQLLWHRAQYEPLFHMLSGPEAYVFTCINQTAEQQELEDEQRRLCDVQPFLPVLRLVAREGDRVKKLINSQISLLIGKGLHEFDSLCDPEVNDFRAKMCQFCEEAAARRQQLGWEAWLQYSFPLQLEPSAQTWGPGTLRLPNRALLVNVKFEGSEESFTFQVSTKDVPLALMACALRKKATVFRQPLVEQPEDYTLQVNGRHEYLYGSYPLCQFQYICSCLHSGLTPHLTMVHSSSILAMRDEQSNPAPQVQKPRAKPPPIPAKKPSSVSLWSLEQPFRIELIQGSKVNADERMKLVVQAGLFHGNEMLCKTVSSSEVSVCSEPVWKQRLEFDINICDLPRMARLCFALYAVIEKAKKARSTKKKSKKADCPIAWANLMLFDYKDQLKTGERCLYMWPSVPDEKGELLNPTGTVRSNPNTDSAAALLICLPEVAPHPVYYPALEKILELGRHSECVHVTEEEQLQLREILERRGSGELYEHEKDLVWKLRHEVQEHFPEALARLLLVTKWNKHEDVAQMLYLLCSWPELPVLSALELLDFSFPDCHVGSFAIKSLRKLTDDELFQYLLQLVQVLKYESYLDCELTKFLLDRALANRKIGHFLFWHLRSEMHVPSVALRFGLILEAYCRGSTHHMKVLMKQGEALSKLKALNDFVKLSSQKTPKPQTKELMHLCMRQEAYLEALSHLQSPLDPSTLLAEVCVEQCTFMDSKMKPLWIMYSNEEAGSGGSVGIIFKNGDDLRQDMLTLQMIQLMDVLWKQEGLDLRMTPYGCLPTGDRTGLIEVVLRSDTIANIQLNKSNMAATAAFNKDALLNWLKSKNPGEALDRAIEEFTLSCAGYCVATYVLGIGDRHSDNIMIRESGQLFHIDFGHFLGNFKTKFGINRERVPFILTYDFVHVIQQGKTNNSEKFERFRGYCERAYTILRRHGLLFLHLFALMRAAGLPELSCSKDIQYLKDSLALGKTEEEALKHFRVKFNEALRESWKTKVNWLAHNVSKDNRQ", "assay": "Selectivity interaction (KinomeScan (DiscoverX)) EUB0000092b PIK3CD", "settings": "at 10 µM"}, "[6]": {"target": "T3, Homeodomain-interacting protein kinase 4 (Homo sapiens) (UniProt Q8NE63)", "T3 sequence (whole entry)": "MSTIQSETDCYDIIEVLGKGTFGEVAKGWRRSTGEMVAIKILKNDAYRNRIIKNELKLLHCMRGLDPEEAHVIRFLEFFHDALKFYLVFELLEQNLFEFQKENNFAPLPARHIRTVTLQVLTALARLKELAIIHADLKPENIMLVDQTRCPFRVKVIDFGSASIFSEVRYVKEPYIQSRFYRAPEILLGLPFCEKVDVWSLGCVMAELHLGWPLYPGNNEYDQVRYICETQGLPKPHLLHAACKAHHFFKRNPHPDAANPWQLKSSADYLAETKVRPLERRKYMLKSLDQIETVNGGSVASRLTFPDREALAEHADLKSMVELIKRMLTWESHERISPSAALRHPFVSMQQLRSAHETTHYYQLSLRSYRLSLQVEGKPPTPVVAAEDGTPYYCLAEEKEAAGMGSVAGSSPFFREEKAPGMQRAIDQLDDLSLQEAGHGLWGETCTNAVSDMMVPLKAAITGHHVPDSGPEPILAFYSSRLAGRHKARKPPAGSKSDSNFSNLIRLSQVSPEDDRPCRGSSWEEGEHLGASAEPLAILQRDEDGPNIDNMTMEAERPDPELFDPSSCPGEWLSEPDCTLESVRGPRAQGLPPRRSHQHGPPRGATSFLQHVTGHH", "assay": "Selectivity interaction (KinomeScan (DiscoverX)) EUB0000045b HIPK4"}}}
{"smiles": "COc1cc(Nc2nc(C)cc(-c3cnn4nc(OC)ccc34)n2)cc(C(F)(F)F)c1", "values": [{"measurement": "% of control", "setting": "[1]", "value": 86, "unit": "%"}]}
{"smiles": "CC[C@@H]1[C@H](F)C(=O)N[C@@H]1COc1nccc2cc(C(N)=O)c(OC)cc12", "note": "[ZIMLOVISERTIB]", "values": [{"measurement": "% of inhibition", "setting": "[2]", "value": 5.73, "unit": "%"}]}
{"smiles": "COCC(=O)NC/C=C/c1ccc2ncnc(Nc3ccc(Oc4ccc(C)nc4)c(C)c3)c2c1", "note": "[CP-724714]", "values": [{"measurement": "% of control", "setting": "[3]", "value": 100, "unit": "%"}, {"measurement": "% of control", "setting": "[4]", "value": 83, "unit": "%"}]}
{"smiles": "CCC(=O)N1CCN(c2ccc(-n3c(=O)ccc4cnc5ccc(-c6cnc7ccccc7c6)cc5c43)cc2C(F)(F)F)CC1", "values": [{"measurement": "% of control", "setting": "[5]", "value": 51, "unit": "%"}]}
{"smiles": "C=CC(=O)Nc1cc(-n2c(=O)ccc3cnc4ccc(-c5ccc(NS(C)(=O)=O)cc5)cc4c32)ccc1C", "values": [{"measurement": "% of control", "setting": "[6]; at 1 µM", "value": 100, "unit": "%"}, {"measurement": "% of control", "setting": "[6]; at 10 µM", "value": 71, "unit": "%"}]}
